± gives the standard deviation of the averaged measurements.
Legend:
Assay in all cases: level (log10 ratio to DMSO vehicle control); higher = higher biomarker level / cell amount than vehicle control
Conditions in all cases: in DMSO
[1] = compound: FC(F)(F)C(F)(F)C(F)(F)C(F)(F)C(F)(F)C(F)(F)CC1CO1 [3-(Perfluorohexyl)-1,2-epoxypropane]
Procedure: (§1)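 BioMAP Diversity Plus panel of 12 human primary cell co-culture systems (3C, 4H, LPS, SAg, BT, BF4T, BE3C, CASM3C, HDF3CGF, KF3CT, MyoF, Mphg). Compounds were added 1 h before stimulation and left for 24 h (MyoF 48 h; BT 72 h for soluble read-outs or 6 d for IgG). Biomarkers were read by ELISA, cytotoxicity by SRB, PBMC viability and proliferation by Alamar Blue. Each well value was divided by the mean of 8 DMSO control wells on the same plate and log10 transformed; duplicate blinded samples were tested at 4 concentrations.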

[2] = compound: O=S(=O)(F)C(F)(F)C(F)(F)C(F)(F)C(F)(F)C(F)(F)C(F)(F)C(F)(F)C(F)(F)F [Perfluorooctanesulfonyl fluoride]
Procedure: as §1

[3] = compound: O=S(=O)(O)CCC(F)(F)C(F)(F)C(F)(F)C(F)(F)C(F)(F)C(F)(F)F [6:2 Fluorotelomer sulfonic acid]
Procedure: as §1

Heptafluorobutyl iodide = compound: FC(F)(F)C(F)(F)C(F)(F)CI [Heptafluorobutyl iodide]
Procedure: as §1

[4] = compound: FC(F)(F)C(F)(F)C(F)(F)C(F)(F)C(F)(F)C(F)(F)C(F)(F)I [1-Iodopentadecafluoroheptane]
Procedure: as §1

[5] = compound: O=S(=O)(Cl)C(F)(F)C(F)(F)C(F)(F)C(F)(F)C(F)(F)C(F)(F)C(F)(F)C(F)(F)F [Perfluoro-1-octanesulfonyl chloride]
Procedure: as §1

Octafluoroadipamide = compound: NC(=O)C(F)(F)C(F)(F)C(F)(F)C(F)(F)C(N)=O [Octafluoroadipamide]
Procedure: as §1

Test System | level (log10) ([1]; 6700 nM) | level (log10) ([1]; 20000 nM) | level (log10) ([1]; 60000 nM) | level (log10) ([2]; 6700 nM) | level (log10) ([2]; 20000 nM) | level (log10) ([2]; 60000 nM) | level (log10) ([3]; 6700 nM) | level (log10) ([3]; 20000 nM) | level (log10) ([3]; 60000 nM) | level (log10) (Heptafluorobutyl iodide; 6700 nM) | level (log10) (Heptafluorobutyl iodide; 20000 nM) | level (log10) (Heptafluorobutyl iodide; 60000 nM) | level (log10) ([4]; 6700 nM) | level (log10) ([4]; 20000 nM) | level (log10) ([5]; 6700 nM) | level (log10) ([5]; 20000 nM) | level (log10) ([5]; 60000 nM) | level (log10) (Octafluoroadipamide; 6700 nM) | level (log10) (Octafluoroadipamide; 20000 nM) | level (log10) (Octafluoroadipamide; 60000 nM)
CASM3C:CD87/uPAR | -0.0105 ± 0.023 | -0.025 ± 0.013 | -0.0165 ± 0.012 | 0.0105 ± 0.0035 | 0.0065 ± 0.005 | 0.0225 ± 0.012 | 0.003 ± 0.035 | 0.0145 ± 0.019 | -0.0125 ± 0.012 | -0.017 ± 0.0042 | 0.0205 ± 0.029 | -0.0015 ± 0.00071 | -0.019 ± 0.031 | -0.0195 ± 0.018 | -0.0235 ± 0.054 | -0.0285 ± 0.054 | -0.0155 ± 0.069 | -0.023 ± 0.051 | -0.0495 ± 0.077 | -0.057 ± 0.041
BE3C:Keratin 8/18 | -0.0045 ± 0.00071 | -0.0115 ± 0.00071 | 0.0015 ± 0.018 | -0.012 ± 0.0014 | -0.01 ± 0.016 | -0.0105 ± 0.005 | 0.001 ± 0.0071 | -0.0185 ± 0.00071 | -0.0085 ± 0.019 | 0.0025 ± 0.0078 | -0.0025 ± 0.00071 | 0.005 ± 0.013 | -0.0075 ± 0.011 | -0.012 | -0.0025 ± 0.0021 | 0.003 ± 0.0028 | -0.106 ± 0.05 | -0.0115 ± 0.005 | -0.0185 ± 0.0092 | 0.0105 ± 0.043
BE3C:PAI-I | -0.003 ± 0.0014 | -0.006 ± 0.0028 | 0.013 ± 0.0099 | -0.021 ± 0.0099 | -0.022 ± 0.052 | -0.0135 ± 0.056 | -0.005 ± 0.0014 | 0.011 ± 0.0085 | 0.0435 ± 0.016 | -0.018 ± 0.017 | -0.027 ± 0.025 | -0.0085 ± 0.016 | -0.0185 ± 0.047 | -0.0245 ± 0.037 | 0.0265 ± 0.011 | 0.0055 ± 0.019 | -0.416 ± 0.054 | -0.0145 ± 0.0021 | -0.0295 ± 0.025 | 0 ± 0.059
3C:CD141/Thrombomodulin | -0.0025 ± 0.028 | -0.0095 ± 0.00071 | -0.0075 ± 0.0035 | -0.021 ± 0.0099 | -0.0235 ± 0.026 | -0.0245 ± 0.028 | -0.0065 ± 0.05 | -0.0475 ± 0.019 | -0.0415 ± 0.033 | -0.0335 ± 0.04 | -0.0305 ± 0.005 | -0.025 ± 0.014 | -0.0215 ± 0.071 | -0.008 ± 0.081 | 0.012 ± 0.025 | 0.0215 ± 0.016 | 0.186 ± 0.0021 | 0.0505 ± 0.044 | 0.048 ± 0.02 | 0.064 ± 0.0099
BE3C:uPA | -0.005 ± 0.014 | -0.006 ± 0.0042 | 0.007 ± 0.02 | 0.0045 ± 0.0021 | -0.011 ± 0.0057 | 0.004 ± 0.014 | -0.008 ± 0.0099 | -0.005 ± 0.0028 | 0.01 ± 0.0057 | -0.0015 ± 0.00071 | -0.0105 ± 0.00071 | -0.0025 ± 0.0035 | -0.0135 ± 0.0035 | -0.009 ± 0.0099 | -0.006 ± 0.0028 | 0.0085 ± 0.0064 | -0.133 ± 0.059 | -0.0155 ± 0.00071 | -0.0055 ± 0.0078 | 0.0005 ± 0.021
4H:CCL26/Eotaxin-3 | -0.001 ± 0.011 | -0.001 ± 0.0028 | 0.005 ± 0.0057 | 0.001 ± 0.0028 | -0.0025 ± 0.00071 | 0.0005 ± 0.005 | 0.017 ± 0.0014 | -0.0285 ± 0.023 | -0.095 ± 0.018 | 0.0215 ± 0.023 | 0.0385 ± 0.023 | 0.0485 ± 0.032 | 0.0365 ± 0.016 | 0.032 ± 0.027 | 0.012 ± 0.014 | -0.066 ± 0.0071 | -0.0725 ± 0.043 | 0.04 ± 0.038 | 0.025 ± 0.069 | 0.012 ± 0.069
4H:CD62P/P-selectin | 0.0055 ± 0.016 | -0.0015 ± 0.019 | 0.013 ± 0.017 | 0.061 ± 0.021 | -0.034 ± 0.079 | -0.0275 ± 0.0064 | -0.004 ± 0.064 | -0.003 ± 0.051 | -0.013 ± 0.054 | -0.0515 ± 0.06 | -0.058 ± 0.061 | -0.0135 ± 0.053 | 0.0125 ± 0.021 | 0.0035 ± 0.022 | 0.0315 ± 0.012 | 0.0485 ± 0.018 | 0.084 ± 0.031 | -0.013 ± 0.0042 | -0.0165 ± 0.032 | -0.0175 ± 0.016
HDF3CGF:CXCL11/I-TAC | 0.01 ± 0.016 | 0.015 ± 0.0028 | -0.003 ± 0.027 | -0.0035 ± 0.0021 | -0.012 ± 0.0028 | -0.0155 ± 0.0021 | -0.0445 ± 0.1 | -0.0605 ± 0.088 | -0.0885 ± 0.091 | -0.0515 ± 0.019 | -0.069 ± 0.076 | -0.091 ± 0.045 | -0.019 ± 0.0057 | -0.0405 ± 0.0092 | -0.038 ± 0.0028 | -0.0315 ± 0.018 | -0.0145 ± 0.022 | -0.0025 ± 0.011 | 0 ± 0.023 | 0.018 ± 0.0014
KF3CT:CD54/ICAM-1 | 0.006 ± 0.0071 | 0.026 | 0.0085 ± 0.0092 | 0.0055 ± 0.029 | 0.003 ± 0.0028 | 0.009 ± 0.0028 | -0.0095 ± 0.0064 | -0.0265 ± 0.0035 | -0.037 ± 0.0071 | -0.008 ± 0.0071 | -0.004 ± 0.0028 | -0.012 ± 0.0014 | -0.015 ± 0.0085 | -0.018 ± 0.021 | -0.0055 ± 0.0021 | -0.008 ± 0.0028 | 0.0325 ± 0.016 | -0.0015 ± 0.0021 | -0.003 | 0.0115 ± 0.022
3C:CXCL9/MIG | 0.0065 ± 0.0064 | -0.011 ± 0.0071 | 0.013 ± 0.0099 | -0.008 ± 0.0099 | -0.0015 ± 0.00071 | 0.0055 ± 0.012 | -0.0065 ± 0.0021 | -0.009 ± 0.017 | -0.006 ± 0.0042 | -0.01 ± 0.0028 | -0.0095 ± 0.0021 | 0.0025 ± 0.0035 | 0.001 ± 0.0099 | -0.002 ± 0.0042 | -0.011 ± 0.0057 | -0.003 ± 0.0028 | 0.021 ± 0.018 | -0.002 ± 0.0028 | 0 ± 0.0057 | 0.024 ± 0.011
HDF3CGF:CD54/ICAM-1 | -0.01 ± 0.018 | -0.0095 ± 0.0092 | -0.021 ± 0.034 | -0.013 ± 0.018 | -0.011 ± 0.0014 | -0.006 ± 0.013 | -0.0085 ± 0.011 | -0.007 ± 0.011 | -0.029 ± 0.014 | -0.004 ± 0.0028 | 0.0005 ± 0.005 | 0.002 ± 0.0028 | -0.0025 ± 0.0078 | -0.0075 ± 0.0078 | 0.039 ± 0.023 | 0.034 ± 0.051 | 0.0005 ± 0.03 | 0.011 ± 0.027 | 0.043 ± 0.0099 | 0.055 ± 0.073
4H:VEGFR2 | -0.0015 ± 0.019 | 0.0235 ± 0.011 | 0.017 ± 0.014 | -0.001 ± 0.03 | -0.01 ± 0.021 | 0 ± 0.027 | -0.0215 ± 0.012 | -0.101 ± 0.0064 | -0.026 ± 0.021 | -0.0075 ± 0.005 | 0.0155 ± 0.063 | 0.0445 ± 0.036 | 0.0055 ± 0.0092 | 0.06 ± 0.024 | 0.0185 ± 0.019 | 0.014 ± 0.0085 | 0.0265 ± 0.0078 | 0.012 ± 0.05 | 0.025 ± 0.0057 | 0.0225 ± 0.03
3C:HLA-DR | -0.0005 ± 0.0035 | -0.006 ± 0.016 | 0.0025 ± 0.016 | -0.0045 ± 0.00071 | -0.004 ± 0.0028 | -0.003 ± 0.011 | -0.0075 ± 0.025 | -0.0145 ± 0.0078 | -0.0065 ± 0.0035 | -0.0255 ± 0.013 | -0.0125 ± 0.016 | -0.0045 ± 0.013 | -0.019 ± 0.0057 | -0.0075 ± 0.015 | -0.0285 ± 0.0092 | -0.013 ± 0.011 | -0.0255 ± 0.056 | -0.0085 ± 0.023 | 0.0055 ± 0.0021 | 0.024 ± 0.014
CASM3C:M-CSF | -0.0025 ± 0.012 | -0.0125 ± 0.011 | 0.0325 ± 0.056 | 0.0005 ± 0.013 | -0.0185 ± 0.028 | 0.0085 ± 0.021 | -0.011 ± 0.044 | -0.002 ± 0.0085 | 0.002 ± 0.037 | -0.001 ± 0.0042 | -0.0165 ± 0.0021 | 0.0195 ± 0.037 | -0.0285 ± 0.019 | 0.0225 ± 0.052 | 0.008 ± 0.014 | 0.0095 ± 0.018 | 0.0425 ± 0.005 | -0.0095 ± 0.0078 | -0.01 ± 0.0085 | -0.0065 ± 0.0092

From the supplement of paper PMC10331698
